Laboratory results from patent US4083994A, “Choleretics” (Hisamitsu Pharmaceutical Co., Inc., priority 1975, dated 1978).

What was measured:
bile secretion [1] = test: Bile secretion test in dogs; assay type: in vivo, male mongrel dogs; details: dog, into duodenum, volume in 1 h before administration = 100%
Experimental: Male mongrel dogs weighing approximately 8 kg were anesthetized with intravenous injection of […] of pentobarbital and further with subcutaneous injection of urethane at a dose of 1.0 g/kg and laparotomized. One canula was inserted into the common bile duct and directed to the liver for collection of the bile, and the other canula was inserted into the duodenum for the drug administration. The cholecystic duct was ligated and the gallbladder bile was aspirated with an injection syringe. The operation was finished by suture of the peritoneum. The bile was collected for one hour from 30 minutes after the operation. The animals were given the test drugs, each 50 mg of which was suspended in 1 ml of 5% gum arabic aqueous solution, through the canula for the drug administration. The bile was collected at hourly intervals for 6 hours after the drug administration. Defining the volume of the bile secreted for one hour before the drug administration as 100%, the volume secreted at hourly intervals after the drug administration was expressed in %, as shown in Table 2.
The mean volume secreted for one hour before the drug administration was 1798 μl.
This suspension was used as a choleretic of the present invention. A male mongrel dog weighing 8.8 kg was fasted overnight and anesthetized by subcutaneous injection of 1.0 mg/kg of urethane and laparotomized. One canula was inserted into the common bile duct and directed to the liver for collection of the bile, and the other canula was also inserted into the duodenum for the drug administration. Subsequently, the cholecystic duct was ligated and the gallbladder bile was aspirated with an injection syringe. The operation was finished after suturing the peritoneum. The bile was collected for one hour from 30 minutes after the operation, and subsequently, 44 ml of the test drug prepared above (250 mg/kg) was given through the canula for the drug administration. The volume of the bile secreted for the first, second and third one hour after the drug administration were 2.2, 2.1 and 1.9 times larger, respectively, than that secreted for one hour before the drug administration.
About 2.5 g of 9-propionyloxy-p-menth-1-en-8-ol was weighed accurately and suspended in 50 ml of 5% gum arabic aqueous solution. This suspension was used as a choleretic of the present invention. A male mongrel dog weighing 7.6 kg was fasted overnight and anesthetized by subcutaneous injection of 1.0 mg/kg of urethane and then laparotomized. One canula was inserted into the common bile duct and directed to the liver for collection of the bile, and the other canula into the duodenum for the drug administration. Subsequently, the cholecystic duct was ligated and the gallbladder bile was aspirated with an injection syringe. The operation was finished by suturing the peritoneum. The bile was collected for one hour from 30 minutes after the operation, and 50 ml (330 mg/kg) of the test drug prepared above was administered through the canula for the drug administration. The volume of the bile secreted for the first, second and third one hour after the drug administration was 3.2, 5.0 and 4.7 times larger, respectively, than that secreted for one hour before the drug administration.

bile secretion [2] = test: Bile secretion test in rats; assay type: in vivo, male Wistar rats; details: rat, oral, volume in 1 h before administration = 100%
Experimental: Male Wistar rats weighing 200-210 g were fasted overnight and laparotomized under urethane anesthesia(Subcutaneous injection at a dose of 1.5 g/kg). A polyethylene tube was inserted into the common bile duct. The bile was collected for one hour from 30 minutes after the operation. Subsequently, the animals were given orally the test drugs, each 50 mg of which was suspended in 1 ml of 5% gum arabic aqueous solution. The bile was collected for 5 hours after the drug administration. The volume of the bile secreted at hourly intervals after the drug administration was expressed in %, defining the volume secreted for one hour before the drug administration as 100%, as shown in Table 1.
About 500 mg of p-menth-1-ene-8,9-diol were weighed accurately, and suspended in 10 ml of 5% gum arabic aqueous solution. […] Male rats of Wistar strain weighing 200 g were fasted overnight, anesthetized by subcutanous injection of 0.3 g of urethane and laparotomized. A polyethylene tube was inserted into the common bile duct. The bile was collected for one hour from 30 minutes after the operation. […]
About 500 mg of 9-acetoxy-p-menth-1-en-8-ol was weighed accurately and suspended in 10ml of 5% gum arabic aqueous solution. […] Male rats of Wistar strain weighing about 210 g were fasted overnight and anesthetized by subcutaneous injection of 0.32 g of urethane and then laparotomized. A polyethylene tube was inserted into the common bile duct, and the bile secreted through the duct was collected for one hour from 30 minutes after the operation. Subsequently, the choleretic of the present invention was administered orally in a volume of 1.05 ml (250 mg/kg).

SMILES | Bile volume secreted after administration (bile secretion [2]; 80 mg/kg, 0-1 hr) | Bile volume secreted after administration (bile secretion [2]; 80 mg/kg, 1-2 hr) | Bile volume secreted after administration (bile secretion [2]; 80 mg/kg, 2-3 hr) | Bile volume secreted after administration (bile secretion [2]; 80 mg/kg, 3-4 hr) | Bile volume secreted after administration (bile secretion [2]; 80 mg/kg, 4-5 hr) | Bile volume secreted after administration (bile secretion [2]; 250 mg/kg, 0-1 hr) | Bile volume secreted after administration (bile secretion [2]; 250 mg/kg, 1-2 hr) | Bile volume secreted after administration (bile secretion [2]; 250 mg/kg, 2-3 hr) | Bile volume secreted after administration (bile secretion [2]; 250 mg/kg, 3-4 hr) | Bile volume secreted after administration (bile secretion [2]; 250 mg/kg, 4-5 hr) | Bile volume secreted after administration (bile secretion [2]; 750 mg/kg, 0-1 hr) | Bile volume secreted after administration (bile secretion [2]; 750 mg/kg, 1-2 hr) | Bile volume secreted after administration (bile secretion [2]; 750 mg/kg, 2-3 hr) | Bile volume secreted after administration (bile secretion [2]; 750 mg/kg, 3-4 hr) | Bile volume secreted after administration (bile secretion [2]; 750 mg/kg, 4-5 hr) | other results
C=C(C)C1CC=C(C)CC1 (centres unmarked) [p-Mentha-1,8-diene, p-mentha-1,8-diene] | 101% | 100% | 100% | 94% | 91% | 104% | 108% | 109% | 108% | 104% | 111% | 125% | 128% | 131% | 128% | Bile volume secreted after administration (bile secretion [1]; 250 mg/kg, 0-1 hr): 220%; Bile volume secreted after administration (bile secretion [1]; 250 mg/kg, 1-2 hr): 213%; Bile volume secreted after administration (bile secretion [1]; 250 mg/kg, 2-3 hr): 185%; Bile volume secreted after administration (bile secretion [1]; 250 mg/kg, 3-4 hr): 110%; Bile volume secreted after administration (bile secretion [1]; 250 mg/kg, 4-5 hr): 85%
CCC(O)c1ccccc1 (racemic) [Felicur, phenylpropanol, reference compound] |  |  |  |  |  | 204% | 172% | 138% | 108% | 88% |  |  |  |  |  | Bile volume secreted after administration (bile secretion [1]; 50 mg/kg, 0-1 hr): 231%; Bile volume secreted after administration (bile secretion [1]; 50 mg/kg, 1-2 hr): 230%; Bile volume secreted after administration (bile secretion [1]; 50 mg/kg, 2-3 hr): 188%; Bile volume secreted after administration (bile secretion [1]; 50 mg/kg, 3-4 hr): 147%
CC(C)[C@@H]1CC[C@@H](C)C[C@H]1O [1-Menthol, 1-menthol, reference compound] | 134% | 114% | 100% | 95% | 89% |  |  |  |  |  | 152% | 143% | 138% | 122% | 111% | Bile volume secreted after administration (bile secretion [2]; 230 mg/kg, 0-1 hr): 139%; Bile volume secreted after administration (bile secretion [2]; 230 mg/kg, 1-2 hr): 137%; Bile volume secreted after administration (bile secretion [2]; 230 mg/kg, 2-3 hr): 133%; Bile volume secreted after administration (bile secretion [2]; 230 mg/kg, 3-4 hr): 117%; Bile volume secreted after administration (bile secretion [2]; 230 mg/kg, 4-5 hr): 111%
